According to ChEMBL document CHEMBL4330125, “Fluoromethylcyclopropylamine derivatives as potential in vivo toxicophores - A cautionary disclosure” (Bioorg Med Chem Lett, 2019):

Assays:
Details in all cases: in vivo
[1] = Toxicity in CD-1 mouse assessed as ataxia at 5 mg/kg, po administered as single dose via gavage measured after 5 hrs; format: organism-based
[2] = Toxicity in CD-1 mouse at 5 mg/kg, po administered as single dose via gavage; format: organism-based
[3] = Hepatotoxicity in CD-1 mouse assessed as appearance of pale yellow color organ at 10 mg/kg, po administered as single dose via gavage measured after 24 hrs; format: toxicity, organism-based
[4] = Ratio of fCmax in CD-1 mouse at 10 mg/kg, po to IC50 for PARG in human HeLa cells; format: ADME, organism-based
[5] = Toxicity in CD-1 mouse assessed as gastrointestinal bleeding at 10 mg/kg, po administered as single dose via gavage measured after 24 hrs; format: organism-based
[6] = Hepatotoxicity in CD-1 mouse assessed as appearance of mottled organ at 10 mg/kg, po administered as single dose via gavage measured after 24 hrs; format: toxicity, organism-based
[7] = Toxicity in CD-1 mouse at 160 mg/kg, po administered as single dose via gavage; format: organism-based

| SMILES | Activity [1] | Activity [2] | also measured |
| --- | --- | --- | --- |
| CCn1c(=O)n(Cc2cnn(C)c2)c(=O)c2cc(S(=O)(=O)NC3(C)CC3)ccc21 | Toxic | Non-Toxic | – |
| Cn1cc(Cn2c(=O)c3cc(S(=O)(=O)NC4(C)CC4)ccc3n(C)c2=O)cn1 | Toxic | Non-Toxic | – |
| CCn1c(=O)n(Cc2cnn(C)c2)c(=O)c2cc(S(=O)(=O)NC3(CF)CC3)ccc21 | Toxic | Non-Toxic | Activity [3]: Toxic; Ratio [4]: Nd(Toxic); Activity [5]: Toxic; Activity [6]: Toxic |
| Cn1cc(Cn2c(=O)c3cc(S(=O)(=O)NC4(CF)CC4)ccc3n(C)c2=O)cn1 | Toxic | – | – |
| Cn1cc(Cn2c(=O)c3cc(S(=O)(=O)NC4(CF)CC4)ccc3n(Cc3ccn(C)n3)c2=O)cn1 | – | Non-Toxic | – |
| Cn1cc(Cn2c(=O)c3cc(S(=O)(=O)NC4(C)CC4)ccc3n(Cc3ccn(C)n3)c2=O)cn1 | – | Non-Toxic | Activity [7]: Non-Toxic |
| CCn1c(=O)n(Cc2cc(C)on2)c(=O)c2cc(S(=O)(=O)NC3(CF)CC3)ccc21 | Toxic | – | – |
